Experimental data as given in ChEMBL document CHEMBL5055633, “Amphipathic Barbiturates as Mimics of Antimicrobial Peptides and the Marine Natural Products Eusynstyelamides with Activity against Multi-resistant Clinical Isolates” (J Med Chem, 2021).

How the values were obtained:
MRC5 = experiment: Cytotoxicity against human MRC5 cells assessed as reduction in cell viability incubated for 24 hrs by colorimetric tetrazolium assay; type: functional, cell-based; details: MRC5, 24 h
Escherichia coli [1] = experiment: Antimicrobial activity against imipenem-type carbapenemase-26 producing Escherichia coli 50857972 assessed as reduction in bacterial growth incubated for 48 hrs by microdilution method; type: functional
[2] = test system: Corynebacterium glutamicum; experiment: Antimicrobial activity against Corynebacterium glutamicum ATCC 13032 assessed as reduction in bacterial growth incubated for 48 hrs by microdilution susceptibility test; type: functional
Pseudomonas aeruginosa [3] = experiment: Antimicrobial activity against verona integron-encoded metallo-beta-lactamase-2 producing Pseudomonas aeruginosa K34-7 assessed as reduction in bacterial growth incubated for 48 hrs by microdilution method; type: functional
[4] = Antimicrobial activity against New Delhi metallo-beta lactamase-1 and oxacillinase -181 producing Klebsiella pneumoniae 50531633 assessed as reduction in bacterial growth incubated for 48 hrs by microdilution method; type: functional
Escherichia coli [5] = experiment: Antimicrobial activity against New Delhi metallo-beta lactamase-1 producing Escherichia coli 50676002 assessed as reduction in bacterial growth incubated for 48 hrs by microdilution method; type: functional
Pseudomonas aeruginosa [6] = experiment: Antimicrobial activity against Pseudomonas aeruginosa PAO1 assessed as reduction in bacterial growth incubated for 48 hrs by microdilution susceptibility test; type: functional
Enterococcus faecium [7] = experiment: Antimicrobial activity against extended spectrum-lactamase-carbapenemas producing Enterococcus faecium strain K36-18 assessed as reduction in bacterial growth incubated for 48 hrs by microdilution method; type: functional
[8] = Antimicrobial activity against carbapenemase producing Klebsiella pneumoniae K47-25 assessed as reduction in bacterial growth incubated for 48 hrs by microdilution method; type: functional
Escherichia coli [9] = experiment: Antimicrobial activity against verona integron-encoded metallo-beta-lactamase-29-producing Escherichia coli 50639799 assessed as reduction in bacterial growth incubated for 48 hrs by microdilution method; type: functional
Escherichia coli [10] = experiment: Antimicrobial activity against Escherichia coli ATCC 25922 assessed as reduction in bacterial growth incubated for 48 hrs by microdilution susceptibility test; type: functional
Staphylococcus aureus [11] = experiment: Antimicrobial activity against extended spectrum-lactamase-carbapenemas producing Staphylococcus aureus strain IHT 99040 assessed as reduction in bacterial growth incubated for 48 hrs by microdilution method; type: functional
Staphylococcus aureus [12] = experiment: Antimicrobial activity against extended spectrum-lactamase-carbapenemas producing Staphylococcus aureus N315 assessed as reduction in bacterial growth incubated for 48 hrs by microdilution method; type: functional
Pseudomonas aeruginosa [13] = experiment: Antimicrobial activity against imipenem-type carbapenemase-14 producing Pseudomonas aeruginosa K44-24 assessed as reduction in bacterial growth incubated for 48 hrs by microdilution method; type: functional
Staphylococcus aureus [14] = experiment: Antimicrobial activity against extended spectrum-lactamase-carbapenemas producing Staphylococcus aureus strain WIS assessed as reduction in bacterial growth incubated for 48 hrs by microdilution method; type: functional
Enterococcus faecium [15] = experiment: Antimicrobial activity against extended spectrum-lactamase-carbapenemas producing Enterococcus faecium strain TUH.50-22 assessed as reduction in bacterial growth incubated for 48 hrs by microdilution method; type: functional
[16] = Hemolytic activity in human erythrocytes incubated for 1 hr by microplate reader; type: functional, cell-based; details: erythrocyte
HepG2 = experiment: Cytotoxicity against human HepG2 cells assessed as reduction in cell viability incubated for 24 hrs by colorimetric tetrazolium assay; type: functional, cell-based; details: HepG2, 24 h
Enterococcus faecium [17] = experiment: Antimicrobial activity against extended spectrum-lactamase-carbapenemas producing Enterococcus faecium strain 50758899 assessed as reduction in bacterial growth incubated for 48 hrs by microdilution method; type: functional
Staphylococcus aureus [18] = experiment: Antimicrobial activity against extended spectrum-lactamase-carbapenemas producing Staphylococcus aureus strain 85/2082 assessed as reduction in bacterial growth incubated for 48 hrs by microdilution method; type: functional
Escherichia coli [19] = experiment: Antimicrobial activity against New Delhi metallo-beta lactamase-1 producing Escherichia coli 50739822 assessed as reduction in bacterial growth incubated for 48 hrs by microdilution method; type: functional
[20] = Antimicrobial activity against oxacillinase-245 producing Klebsiella pneumoniae 50625602 assessed as reduction in bacterial growth incubated for 48 hrs by microdilution method; type: functional
Staphylococcus aureus [21] = experiment: Antimicrobial activity against Staphylococcus aureus ATCC 9144 assessed as reduction in bacterial growth incubated for 48 hrs by microdilution susceptibility test; type: functional
Pseudomonas aeruginosa [22] = experiment: Antimicrobial activity against verona integron-encoded metallo-beta-lactamase producing Pseudomonas aeruginosa 50692520 assessed as reduction in bacterial growth incubated for 48 hrs by microdilution method; type: functional
Acinetobacter baumannii [23] = experiment: Antimicrobial activity against oxacillinase-58 producing Acinetobacter baumannii K12-21 assessed as reduction in bacterial growth incubated for 48 hrs by microdilution method; type: functional
[24] = Antimicrobial activity against New Delhi metallo-beta lactamase-1 Klebsiella pneumoniae K66-45 assessed as reduction in bacterial growth incubated for 48 hrs by microdilution method; type: functional
Staphylococcus aureus [25] = experiment: Antimicrobial activity against extended spectrum-lactamase-carbapenemas producing Staphylococcus aureus NCTC 10442 assessed as reduction in bacterial growth incubated for 48 hrs by microdilution method; type: functional
Enterococcus faecium [26] = experiment: Antimicrobial activity against extended spectrum-lactamase-carbapenemas producing Enterococcus faecium strain 50673722 assessed as reduction in bacterial growth incubated for 48 hrs by microdilution method; type: functional
Pseudomonas aeruginosa [27] = experiment: Antimicrobial activity against New Delhi metallo-beta lactamase-1 producing Pseudomonas aeruginosa 50692172 assessed as reduction in bacterial growth incubated for 48 hrs by microdilution method; type: functional
Pseudomonas aeruginosa [28] = experiment: Antimicrobial activity against verona integron-encoded metallo-beta-lactamase-4 producing Pseudomonas aeruginosa K34-73 assessed as reduction in bacterial growth incubated for 48 hrs by microdilution method; type: functional
Escherichia coli [29] = experiment: Antimicrobial activity against oxacillinase-producing Escherichia coli 50579417 assessed as reduction in bacterial growth incubated for 48 hrs by microdilution method; type: functional
[30] = Antimicrobial activity against verona integron-encoded metallo-beta-lactamase -1 producing Klebsiella pneumoniae 50667959 assessed as reduction in bacterial growth incubated for 48 hrs by microdilution method; type: functional
Acinetobacter baumannii [31] = experiment: Antimicrobial activity against oxacillinase-24 producing Acinetobacter baumannii K55-13 assessed as reduction in bacterial growth incubated for 48 hrs by microdilution method; type: functional
Acinetobacter baumannii [32] = experiment: Antimicrobial activity against oxacillinase-23 producing Acinetobacter baumannii K63-58 assessed as reduction in bacterial growth incubated for 48 hrs by microdilution method; type: functional
Acinetobacter baumannii [33] = experiment: Antimicrobial activity against oxacillinase-23 producing Acinetobacter baumannii K47-42 assessed as reduction in bacterial growth incubated for 48 hrs by microdilution method; type: functional
Enterococcus faecium [34] = experiment: Antimicrobial activity against extended spectrum-lactamase-carbapenemas producing Enterococcus faecium strain 50901530 assessed as reduction in bacterial growth incubated for 48 hrs by microdilution method; type: functional
Acinetobacter baumannii [35] = experiment: Antimicrobial activity against oxacillinase-23 producing Acinetobacter baumannii K44-35 assessed as reduction in bacterial growth incubated for 48 hrs by microdilution method; type: functional

| SMILES | IC50 (MRC5) [µg/mL] | MIC (Escherichia coli [1]) [µg/mL] | MIC [2] [µg/mL] | MIC (Pseudomonas aeruginosa [3]) [µg/mL] | MIC [4] [µg/mL] | MIC (Escherichia coli [5]) [µg/mL] | MIC (Pseudomonas aeruginosa [6]) [µg/mL] | MIC (Enterococcus faecium [7]) [µg/mL] | MIC [8] [µg/mL] | MIC (Escherichia coli [9]) [µg/mL] | MIC (Escherichia coli [10]) [µg/mL] | MIC (Staphylococcus aureus [11]) [µg/mL] | MIC (Staphylococcus aureus [12]) [µg/mL] | MIC (Pseudomonas aeruginosa [13]) [µg/mL] | MIC (Staphylococcus aureus [14]) [µg/mL] | MIC (Enterococcus faecium [15]) [µg/mL] | EC50 [16] [µg/mL] | IC50 (HepG2) [µg/mL] | MIC (Enterococcus faecium [17]) [µg/mL] | MIC (Staphylococcus aureus [18]) [µg/mL] | other results |
| --- | --- | --- | --- | --- | --- | --- | --- | --- | --- | --- | --- | --- | --- | --- | --- | --- | --- | --- | --- | --- | --- |
| NCCCCN1C(=O)N(CCCCN)C(=O)C(Cc2ccc(F)c3ccccc23)(Cc2ccc(F)c3ccccc23)C1=O.O=C(O)C(F)(F)F.O=C(O)C(F)(F)F | 2 | 16 | 1 | 32 | 16 | 16 | 8 | 8 | > 32 | 16 | 16 | 8 | 8 | 32 | 8 | 4 | 160 | 5 | 8 | 4 | MIC (Escherichia coli [19]): 16 µg/mL; MIC [20]: 32 µg/mL; MIC (Staphylococcus aureus [21]): 4 µg/mL; MIC (Pseudomonas aeruginosa [22]): 16 µg/mL; MIC (Acinetobacter baumannii [23]): 32 µg/mL; MIC [24]: 32 µg/mL; MIC (Staphylococcus aureus [25]): 8 µg/mL; MIC (Enterococcus faecium [26]): 8 µg/mL; MIC (Pseudomonas aeruginosa [27]): 16 µg/mL; MIC (Pseudomonas aeruginosa [28]): 32 µg/mL; MIC (Escherichia coli [29]): 16 µg/mL; MIC [30]: 32 µg/mL; MIC (Acinetobacter baumannii [31]): 32 µg/mL; MIC (Acinetobacter baumannii [32]): 16 µg/mL; MIC (Acinetobacter baumannii [33]): 32 µg/mL; MIC (Enterococcus faecium [34]): 4 µg/mL; MIC (Acinetobacter baumannii [35]): 32 µg/mL |
| CC(C)(C)c1ccc(CC2(Cc3ccc(C(C)(C)C)cc3)C(=O)N(CCCCNC(=N)N)C(=O)N(CCCCNC(=N)N)C2=O)cc1.O=C(O)C(F)(F)F.O=C(O)C(F)(F)F | 14 | 4 | < 0.13 | 16 | 4 | 4 | 4 | 2 | 4 | 4 | 2 | 2 | 2 | 16 | 2 | 2 | 77 | 28 | 2 | 2 | MIC (Escherichia coli [19]): 4 µg/mL; MIC [20]: 4 µg/mL; MIC (Staphylococcus aureus [21]): 1 µg/mL; MIC (Pseudomonas aeruginosa [22]): 16 µg/mL; MIC (Acinetobacter baumannii [23]): 4 µg/mL; MIC [24]: 4 µg/mL; MIC (Staphylococcus aureus [25]): 2 µg/mL; MIC (Enterococcus faecium [26]): 2 µg/mL; MIC (Pseudomonas aeruginosa [27]): 16 µg/mL; MIC (Pseudomonas aeruginosa [28]): 8 µg/mL; MIC (Escherichia coli [29]): 4 µg/mL; MIC [30]: 16 µg/mL; MIC (Acinetobacter baumannii [31]): 8 µg/mL; MIC (Acinetobacter baumannii [32]): 4 µg/mL; MIC (Acinetobacter baumannii [33]): 8 µg/mL; MIC (Enterococcus faecium [34]): 4 µg/mL; MIC (Acinetobacter baumannii [35]): 8 µg/mL |
| N=C(N)NCCCCN1C(=O)N(CCCCNC(=N)N)C(=O)C(Cc2cc(C(F)(F)F)cc(C(F)(F)F)c2)(Cc2cc(C(F)(F)F)cc(C(F)(F)F)c2)C1=O.O=C(O)C(F)(F)F.O=C(O)C(F)(F)F | 29 | 4 | 2 | 16 | 16 | 4 | 8 | 4 | 16 | 4 | 2 | 2 | 2 | 16 | 2 | 2 | 98 | 19 | 4 | 2 | MIC (Escherichia coli [19]): 8 µg/mL; MIC [20]: 8 µg/mL; MIC (Staphylococcus aureus [21]): 2 µg/mL; MIC (Pseudomonas aeruginosa [22]): 16 µg/mL; MIC (Acinetobacter baumannii [23]): 16 µg/mL; MIC [24]: 16 µg/mL; MIC (Staphylococcus aureus [25]): 2 µg/mL; MIC (Enterococcus faecium [26]): 2 µg/mL; MIC (Pseudomonas aeruginosa [27]): 16 µg/mL; MIC (Pseudomonas aeruginosa [28]): 16 µg/mL; MIC (Escherichia coli [29]): 8 µg/mL; MIC [30]: 16 µg/mL; MIC (Acinetobacter baumannii [31]): 16 µg/mL; MIC (Acinetobacter baumannii [32]): 16 µg/mL; MIC (Acinetobacter baumannii [33]): 16 µg/mL; MIC (Enterococcus faecium [34]): 2 µg/mL; MIC (Acinetobacter baumannii [35]): 16 µg/mL |
